Values joined by “and” are separate entries in the source; they are usually repeats but may differ in a detail not shown here. Identical values can stand only once. {32P} = terminal 32P phosphate radiolabel
Experiments:
[1] = tested on: single stranded target DNA (M13mp19); experiment: Target-catalyzed isothermal 5'-nuclease cleavage of 5'-32P-labeled probe; fold amplification by gel electrophoresis and liquid scintillation; assay type: biochemical
Experimental: Probe 2, the unlabeled probe, was designed to anneal to the target DNA 3' to, and contiguous with, the site at which the labeled probe annealed to the target DNA. […] However, good results were obtained in the absence of DATP. The reaction mixture was incubated at 72° C. and accumulation of product, a mononucleotide, namely, 5'^32P-C-OH, was determined by visualization using autoradiography following polyacrylamide gel electrophoresis. The fold of amplification was determined by liquid scintillation spectrometry of excised reaction products. A 10^5 fold amplification was observed. […] The product of this reaction was a dinucleotide, namely, 5'^32P-TC-OH (SEQ ID NO:4), that represented a 10^5-fold amplification. The above reaction protocol was repeated with different temperatures and different concentrations of reagents. All of the reactions, including those mentioned above, were carried out for a period of 3 hours. The following table summarizes the reagents and reaction parameters and the results obtained during the optimization procedure. The reaction protocol described in Example 1 was repeated using the following probes in place of Probe 1 or Probe 3: […]

[2] = tested on: Probe 5 hybridized to target DNA (M13mp19); experiment: Cleavage of Probe 5 on target DNA using six different DNA polymerases with 5'-nuclease activity; assay type: biochemical; details: 2×10^9 target molecules; Probe 5 1 micromolar; three hours; 72 °C; 20-nucleotide fragment
Experimental: Probe 2, the unlabeled probe, was designed to anneal to the target DNA 3' to, and contiguous with, the site at which the labeled probe annealed to the target DNA. […] However, good results were obtained in the absence of DATP. The reaction protocol described in Example 1 was repeated using 2×10^9 target molecules and Probe 5 (see Example 2) at a concentration of 1 micromolar in place of Probe 1. The reactions were conducted for three hours at a temperature of 72° C. using one of six different DNA polymerases, namely, AmpliTaq DNA polymerase, […] polymerase (Epicentre), Tfl(TM) DNA polymerase (Epicentre), Ultra Therm(TM) DNA polymerase (Bio/Can Scientific), […] polymerase (Amresco) and Panozyme(TM) DNA polymerase. The product of the reaction was a 20-nucleotide fragment (see Example 2). The following is a summary of the results obtained.

[3] = probe 1 μM, target number 10^9, Taq 7.5 units, 72 °C, increase MgCl2 (7.5 mM), 3 hours
[4] = probe 10 uM, 2×10^8 target molecules, Probe 2 1 uM, 7.5 units AmpliTaq, 72 °C, 7.5 mM MgCl2, 100 uM dATP, 3 hours
[5] = probe 10 μM, target number 10^8, Taq 7.5 units, 74 °C, increase MgCl2 (7.5 mM), 3 hours
[6] = probe 10 μM, target number 10^9, Taq 7.5 units, 74 °C, increase MgCl2 (7.5 mM), 3 hours

With “5′ CGT-GGG-AAC-AAA-CGG-CGG-AT3′ (CGTGGGAACAAACGGCGGAT; DNA, 5' {32P}, backbone and methylation of C not given here) [Probe 1, 20-base oligonucleotide fully complementary to the target DNA with label on the 5′-nucleotide]” the Fold amplification ([1]; probe 1 μM, target number 10^8, Taq 7.5 units, 72 °C, add dATP (100 μM), 3 hours) was 1.0 × 10^4 fold, the Fold amplification ([1]; probe 1 μM, target number 10^9, Taq 2.5 units, 72 °C, buffer as described, 1.5 mM MgCl2, 3 hours) was 1.8 × 10^3 fold and the Fold amplification ([1]; probe 1 μM, target number 10^9, Taq 7.5 units, 72 °C, add dATP (100 μM), 3 hours) was 1.4 × 10^3 fold. The Fold amplification ([1]; probe 1 μM, target number 10^9, Taq 7.5 units, 72 °C, buffer as described, 1.5 mM MgCl2, 3 hours) was 2.0 × 10^3 fold, the Fold amplification [1, 3] was 9.7 × 10^3 fold and 9.3 × 10^3 fold and the Fold amplification ([1]; probe 1 μM, target number 10^10, Taq 2.5 units, 72 °C, buffer as described, 1.5 mM MgCl2, 3 hours) was 8.8 × 10^2 fold. For the same molecule, the Fold amplification [1, 4] was 10^5 fold, the Fold amplification ([1]; probe 10 μM, target number 10^8, Taq 7.5 units, 72 °C, add dATP (100 μM), 3 hours) was 3.6 × 10^4 fold and the Fold amplification [1, 5] was 1.1 × 10^5 fold. For the same molecule, the Fold amplification ([1]; probe 10 μM, target number 10^9, Taq 7.5 units, 72 °C, add dATP (100 μM), 3 hours) was 1.4 × 10^4 fold and the Fold amplification [1, 6] was 3.7 × 10^4 fold.

With “5′GAT-TAG-GAT-TAG-GAT-TAG-TCG-TGG-GAA-CAA-ACG-GCG-GAT3′ (GATTAGGATTAGGATTAGTCGTGGGAACAAACGGCGGAT; DNA, 5' {32P}, backbone and methylation of C not given here) [Probe 5, 39 nucleotides with 19 nucleotides at its 5′-end not complementary to the target DNA]” the Fold amplification ([1]; Example 1 protocol, probe concentration not given, product intact 20 nucleotide fragment) was 1.5×10^4 fold.

In the case of “5′TCG-TGG-GAA-CAA-ACG-GCG-GAT3′ (TCGTGGGAACAAACGGCGGAT; DNA, 5' {32P}, backbone and methylation of C not given here) [Probe 3, 21 nucleotides withone base at the 5′-end not complementary to the target DNA]”, the Fold amplification ([1]; probe 1 μM, target number 10^8, Taq 7.5 units, 72 °C, increase MgCl2 (7.5 mM), 3 hours) is reported as 2.6 × 10^4 fold, the Fold amplification [1, 3] is reported as 9.9 × 10^3 fold and the Fold amplification [1, 4] is reported as 10^5 fold. The Fold amplification [1, 5] was 1.0 × 10^5 fold and the Fold amplification [1, 6] was 4.6 × 10^4 fold.

In the case of “5′TTA-TTT-CGT-GGG-AAC-AAA-CGG-CGG-AT3′ [Probe 4]”, the Fold amplification ([1]; Example 1 protocol, probe 1 micromolar, product intact seven nucleotide fragment) is reported as 1.5×10^4 fold.

In the case of Nc1ncnc2c1ncn2[C@H]1C[C@H](O)[C@@H](COP(=O)(O)OP(=O)(O)OP(=O)(O)O)O1 [dATP, reference compound], the “effect on rate of cleavage by the polymerase” value ([1]; 100 uM in buffer, AmpliTaq DNA polymerase) is reported as “enhance the rate of cleavage”.

In the case of “AmpliTaq: Taq DNA polymerase from Perkin-Elmer Corporation with 5′-nuclease activity”, the “Fragment (picomoles)” value [2] is reported as 32 picomoles.

From US6368803B1, “Detection of nucleic acids by target-catalyzed formation” (Dade Behring Inc., priority 1994, dated 2002)
